# According to ChEMBL document CHEMBL3734692, “Design and synthesis of 2-oxindole based multi-targeted inhibitors of PDK1/Akt signaling pathway for the treatment of glioblastoma multiforme” (Eur J Med Chem, 2015):
# Calls of active or inactive are those of the source. The calls are words filed in the database; no cut-off is given here.
# Experiments:
# [1] = Antiproliferative activity against human ANGM-CSS cells assessed as inhibition of cell growth after 72 hrs by WST1 assay; type: functional
# ANGM-CSS [2] = assay: Antiproliferative activity against human GSC derived from ANGM-CSS cells after 7 days by MTS assay; type: functional, cell-based
# [3] = Cell cycle arrest in human GSC derived from ANGM-CSS cells assessed as accumulation at S phase at 1 uM after 7 days by based fluorescent reagent based cell analysis (reference value: 1.9%); type: functional
# [4] = biological target: Mitogen-activated protein kinase 3 (Homo sapiens) (UniProt P27361); assay: Inhibition of ERK1 (unknown origin) at 1 uM by selectscreen kinase profiling assay in presence of ATP
# [5] = biological target: Tyrosine-protein kinase ITK/TSK (Homo sapiens) (UniProt Q08881); assay: Inhibition of ITK (unknown origin) at 1 uM by selectscreen kinase profiling assay in presence of ATP
# [6] = Induction of apoptosis in human ANGM-CSS cells assessed as dead cells at 1 uM after 7 days by annexin V-FITC/7-AAD dual staining based cell analysis (reference value: 2.28%); type: functional
# [7] = Induction of apoptosis in human ANGM-CSS cells assessed as live cells at 1 uM after 7 days by annexin V-FITC/7-AAD dual staining based cell analysis (reference value: 92.21%); type: functional
# [8] = biological target: Inhibitor of nuclear factor kappa-B kinase subunit alpha (Homo sapiens) (UniProt O15111); assay: Inhibition of IKKalpha (unknown origin) at 1 uM by selectscreen kinase profiling assay in presence of ATP
# [9] = biological target: Glycogen synthase kinase-3 alpha (Homo sapiens, UniProt P49840); assay: Inhibition of GSK3alpha (unknown origin) in presence of 10 uM ATP incubated for 1 hr by Z'Lyte assay
# Glycogen synthase kinase-3 alpha, sequence (P49840 whole entry): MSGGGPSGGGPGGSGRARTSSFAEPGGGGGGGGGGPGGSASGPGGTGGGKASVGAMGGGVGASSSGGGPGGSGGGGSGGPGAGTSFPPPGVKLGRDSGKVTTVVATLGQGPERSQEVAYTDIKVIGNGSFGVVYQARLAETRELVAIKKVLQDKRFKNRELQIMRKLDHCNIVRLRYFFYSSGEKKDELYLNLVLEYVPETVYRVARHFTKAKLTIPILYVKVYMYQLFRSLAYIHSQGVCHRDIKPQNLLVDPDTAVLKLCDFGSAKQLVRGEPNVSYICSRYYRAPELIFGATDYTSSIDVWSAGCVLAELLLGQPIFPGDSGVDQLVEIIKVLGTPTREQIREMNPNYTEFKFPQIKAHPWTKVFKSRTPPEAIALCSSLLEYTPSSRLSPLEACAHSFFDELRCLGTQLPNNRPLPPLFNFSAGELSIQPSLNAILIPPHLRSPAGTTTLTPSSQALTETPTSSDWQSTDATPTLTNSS
# [10] = biological target: AMP-activated protein kinase, AMPK (Homo sapiens) (UniProt P54646+O43741+P54619+Q9UGJ0+Q9Y478+Q13131+Q9UGI9); assay: Inhibition of AMPK A2/B1/G1 (unknown origin) at 1 uM by selectscreen kinase profiling assay in presence of ATP; type: protein-complex assay
# [11] = biological target: Interleukin-1 receptor-associated kinase 4 (Homo sapiens) (UniProt Q9NWZ3); assay: Inhibition of IRAK4 (unknown origin) at 1 uM by selectscreen kinase profiling assay in presence of ATP
# Interleukin-1 receptor-associated kinase 4 (Homo sapiens), sequence (Q9NWZ3 whole entry): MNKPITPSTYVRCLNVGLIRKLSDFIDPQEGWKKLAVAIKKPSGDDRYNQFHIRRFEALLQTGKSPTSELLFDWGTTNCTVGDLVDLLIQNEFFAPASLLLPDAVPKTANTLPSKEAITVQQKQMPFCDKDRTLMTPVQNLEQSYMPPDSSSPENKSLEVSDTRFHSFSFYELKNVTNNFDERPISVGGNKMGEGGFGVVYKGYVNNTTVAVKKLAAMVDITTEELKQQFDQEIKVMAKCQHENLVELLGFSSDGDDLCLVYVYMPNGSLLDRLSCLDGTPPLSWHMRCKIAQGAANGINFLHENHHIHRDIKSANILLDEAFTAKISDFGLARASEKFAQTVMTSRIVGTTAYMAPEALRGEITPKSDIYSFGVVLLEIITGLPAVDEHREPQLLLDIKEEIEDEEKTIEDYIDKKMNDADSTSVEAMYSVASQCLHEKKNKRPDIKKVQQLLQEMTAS
# [12] = biological target: Proto-oncogene tyrosine-protein kinase Src (Homo sapiens) (UniProt P12931); assay: Inhibition of SRC (unknown origin) at 1 uM by selectscreen kinase profiling assay in presence of ATP
# Proto-oncogene tyrosine-protein kinase Src (Homo sapiens), sequence (P12931 2-536 limits assumed): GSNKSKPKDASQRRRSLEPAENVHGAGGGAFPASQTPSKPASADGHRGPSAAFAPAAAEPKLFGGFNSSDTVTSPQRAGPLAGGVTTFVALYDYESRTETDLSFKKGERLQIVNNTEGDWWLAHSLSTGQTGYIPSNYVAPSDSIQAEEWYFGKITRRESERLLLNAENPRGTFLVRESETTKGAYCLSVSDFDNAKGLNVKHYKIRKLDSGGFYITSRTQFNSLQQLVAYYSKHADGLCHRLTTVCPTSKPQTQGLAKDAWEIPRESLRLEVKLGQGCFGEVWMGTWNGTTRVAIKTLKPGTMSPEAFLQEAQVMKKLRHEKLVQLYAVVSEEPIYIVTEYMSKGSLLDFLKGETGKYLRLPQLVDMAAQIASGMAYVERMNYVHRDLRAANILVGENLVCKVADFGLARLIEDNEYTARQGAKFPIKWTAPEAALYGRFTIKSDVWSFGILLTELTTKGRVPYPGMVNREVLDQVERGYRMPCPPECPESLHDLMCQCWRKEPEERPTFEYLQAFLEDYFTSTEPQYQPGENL
# [13] = Antiproliferative activity against human ANGM-CSS cells assessed as inhibition of cell growth after 120 hrs by WST1 assay; type: functional
# [14] = biological target: Cyclin-dependent kinase 1/cyclin B1 (Homo sapiens) (UniProt P06493+P14635); assay: Inhibition of CDK1/cyclin B (unknown origin) at 1 uM by selectscreen kinase profiling assay in presence of ATP; type: protein-complex assay
# Cyclin-dependent kinase 1/cyclin B1 (Homo sapiens), sequence (P06493 whole entry, looked up): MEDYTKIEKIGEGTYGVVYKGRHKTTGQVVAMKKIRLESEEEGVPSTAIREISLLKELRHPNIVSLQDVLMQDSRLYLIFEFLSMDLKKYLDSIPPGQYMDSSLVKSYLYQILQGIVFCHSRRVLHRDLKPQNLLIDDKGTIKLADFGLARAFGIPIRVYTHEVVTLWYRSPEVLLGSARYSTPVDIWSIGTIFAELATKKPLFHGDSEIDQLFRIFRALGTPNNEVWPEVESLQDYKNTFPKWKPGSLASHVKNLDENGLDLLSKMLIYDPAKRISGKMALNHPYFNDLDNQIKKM
# Cyclin-dependent kinase 1/cyclin B1 (Homo sapiens), sequence (P14635 whole entry, looked up): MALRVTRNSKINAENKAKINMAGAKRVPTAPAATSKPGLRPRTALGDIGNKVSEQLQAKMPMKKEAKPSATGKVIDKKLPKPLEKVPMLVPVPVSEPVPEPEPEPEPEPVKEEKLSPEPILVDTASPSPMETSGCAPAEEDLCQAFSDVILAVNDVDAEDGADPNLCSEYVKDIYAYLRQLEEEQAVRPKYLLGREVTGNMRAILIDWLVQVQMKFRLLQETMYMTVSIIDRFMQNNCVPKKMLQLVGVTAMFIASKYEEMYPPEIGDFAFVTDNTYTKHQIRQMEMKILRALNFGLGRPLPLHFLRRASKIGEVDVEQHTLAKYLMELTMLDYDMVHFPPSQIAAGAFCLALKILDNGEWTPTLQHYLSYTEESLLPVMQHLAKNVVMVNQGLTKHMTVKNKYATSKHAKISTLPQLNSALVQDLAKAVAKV
# [15] = biological target: Cyclin-dependent kinase 5/CDK5 activator 1 (Homo sapiens) (UniProt Q00535+Q15078); assay: Inhibition of CDK5/p35 (unknown origin) at 1 uM by selectscreen kinase profiling assay in presence of ATP; type: protein-complex assay
# [16] = biological target: Aurora kinase A (Homo sapiens) (UniProt O14965); assay: Inhibition of AURKA (unknown origin) at 1 uM by selectscreen kinase profiling assay in presence of ATP
# [17] = biological target: RAC-beta serine/threonine-protein kinase (Homo sapiens) (UniProt P31751); assay: Inhibition of AKT2 (unknown origin) at 1 uM by selectscreen kinase profiling assay in presence of ATP
# [18] = biological target: RAC-gamma serine/threonine-protein kinase (Homo sapiens) (UniProt Q9Y243); assay: Inhibition of AKT3 (unknown origin) at 1 uM by selectscreen kinase profiling assay in presence of ATP
# RAC-gamma serine/threonine-protein kinase (Homo sapiens), sequence (Q9Y243 whole entry): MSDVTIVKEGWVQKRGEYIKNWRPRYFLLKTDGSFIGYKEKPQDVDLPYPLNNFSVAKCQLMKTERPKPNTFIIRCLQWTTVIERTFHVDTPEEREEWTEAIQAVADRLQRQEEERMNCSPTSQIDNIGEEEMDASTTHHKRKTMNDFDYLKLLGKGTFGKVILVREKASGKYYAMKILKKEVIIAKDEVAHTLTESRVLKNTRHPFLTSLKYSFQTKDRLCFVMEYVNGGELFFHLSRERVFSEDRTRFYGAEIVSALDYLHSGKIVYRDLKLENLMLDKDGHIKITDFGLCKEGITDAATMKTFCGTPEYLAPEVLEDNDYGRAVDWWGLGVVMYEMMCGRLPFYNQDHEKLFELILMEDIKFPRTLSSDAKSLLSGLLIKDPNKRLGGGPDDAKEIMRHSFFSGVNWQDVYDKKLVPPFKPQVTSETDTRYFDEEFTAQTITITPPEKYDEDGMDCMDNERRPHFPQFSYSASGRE
# [19] = Antiproliferative activity against human U118MG cells assessed as inhibition of cell growth after 120 hrs by WST1 assay; type: functional; settings: U-118-MG
# [20] = biological target: Glycogen synthase kinase-3 beta (Homo sapiens, UniProt P49841); assay: Inhibition of GSK3beta (unknown origin) at 1 uM by selectscreen kinase profiling assay in presence of ATP
# [21] = biological target: Inhibitor of nuclear factor kappa-B kinase subunit beta (Homo sapiens) (UniProt O14920); assay: Inhibition of IKKbeta (unknown origin) at 1 uM by selectscreen kinase profiling assay in presence of ATP
# [22] = Antiproliferative activity against human U118MG cells assessed as inhibition of cell growth after 72 hrs by WST1 assay; type: functional; settings: U-118-MG
# ANGM-CSS [23] = assay: Induction of human GSC differentiation derived from ANGM-CSS cells assessed as up regulation of MAP2 mRNA expression at 1 uM after 7 days by RT-PCR analysis; type: functional, cell-based
# [24] = biological target: Phosphatidylinositol 4,5-bisphosphate 3-kinase catalytic subunit gamma isoform (Homo sapiens) (UniProt P48736); assay: Inhibition of PIK3Cgamma (unknown origin) at 1 uM by selectscreen kinase profiling assay in presence of ATP
# Phosphatidylinositol 4,5-bisphosphate 3-kinase catalytic subunit gamma isoform (Homo sapiens), sequence (P48736 whole entry, looked up, canonical isoform): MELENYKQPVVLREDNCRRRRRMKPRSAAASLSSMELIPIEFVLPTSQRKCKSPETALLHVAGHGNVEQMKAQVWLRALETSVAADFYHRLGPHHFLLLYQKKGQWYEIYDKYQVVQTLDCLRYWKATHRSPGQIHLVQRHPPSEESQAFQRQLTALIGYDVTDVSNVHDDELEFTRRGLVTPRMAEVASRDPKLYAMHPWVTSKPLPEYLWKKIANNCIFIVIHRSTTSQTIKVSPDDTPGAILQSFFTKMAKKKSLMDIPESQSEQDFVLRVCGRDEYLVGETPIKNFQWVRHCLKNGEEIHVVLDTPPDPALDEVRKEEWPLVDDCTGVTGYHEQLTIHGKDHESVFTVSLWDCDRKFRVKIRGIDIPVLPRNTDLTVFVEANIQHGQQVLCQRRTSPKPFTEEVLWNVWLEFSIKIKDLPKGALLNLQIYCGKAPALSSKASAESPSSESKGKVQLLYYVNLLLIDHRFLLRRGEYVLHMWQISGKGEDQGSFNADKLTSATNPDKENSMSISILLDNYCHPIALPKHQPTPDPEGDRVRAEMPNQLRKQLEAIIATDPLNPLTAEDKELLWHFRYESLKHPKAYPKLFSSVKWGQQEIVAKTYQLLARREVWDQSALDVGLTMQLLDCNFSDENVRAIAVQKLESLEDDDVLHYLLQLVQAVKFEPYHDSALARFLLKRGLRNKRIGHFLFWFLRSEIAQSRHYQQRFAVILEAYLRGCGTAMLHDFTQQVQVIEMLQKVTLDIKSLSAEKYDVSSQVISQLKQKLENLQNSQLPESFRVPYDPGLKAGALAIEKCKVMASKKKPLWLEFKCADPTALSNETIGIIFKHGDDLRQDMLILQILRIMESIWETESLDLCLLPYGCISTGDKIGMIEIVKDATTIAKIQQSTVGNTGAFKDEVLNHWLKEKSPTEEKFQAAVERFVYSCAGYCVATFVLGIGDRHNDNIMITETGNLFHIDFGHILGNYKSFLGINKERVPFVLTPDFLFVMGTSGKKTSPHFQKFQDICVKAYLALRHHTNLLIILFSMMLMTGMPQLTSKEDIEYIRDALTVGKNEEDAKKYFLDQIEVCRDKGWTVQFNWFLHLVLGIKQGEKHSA
# [25] = Antiproliferative activity against human ANGM-CSS cells assessed as inhibition of cell growth after 144 hrs by WST1 assay; type: functional
# [26] = tested on: RAF proto-oncogene serine/threonine-protein kinase (Homo sapiens), P04049 [Y340D,Y341D]; assay: Inhibition of RAF1 Y340D/Y341D double mutant (unknown origin) at 1 uM by selectscreen kinase profiling assay in presence of ATP
# RAF proto-oncogene serine/threonine-protein kinase (Homo sapiens), P04049 [Y340D,Y341D], sequence (P04049 whole entry Y340D/Y341D, canonical isoform): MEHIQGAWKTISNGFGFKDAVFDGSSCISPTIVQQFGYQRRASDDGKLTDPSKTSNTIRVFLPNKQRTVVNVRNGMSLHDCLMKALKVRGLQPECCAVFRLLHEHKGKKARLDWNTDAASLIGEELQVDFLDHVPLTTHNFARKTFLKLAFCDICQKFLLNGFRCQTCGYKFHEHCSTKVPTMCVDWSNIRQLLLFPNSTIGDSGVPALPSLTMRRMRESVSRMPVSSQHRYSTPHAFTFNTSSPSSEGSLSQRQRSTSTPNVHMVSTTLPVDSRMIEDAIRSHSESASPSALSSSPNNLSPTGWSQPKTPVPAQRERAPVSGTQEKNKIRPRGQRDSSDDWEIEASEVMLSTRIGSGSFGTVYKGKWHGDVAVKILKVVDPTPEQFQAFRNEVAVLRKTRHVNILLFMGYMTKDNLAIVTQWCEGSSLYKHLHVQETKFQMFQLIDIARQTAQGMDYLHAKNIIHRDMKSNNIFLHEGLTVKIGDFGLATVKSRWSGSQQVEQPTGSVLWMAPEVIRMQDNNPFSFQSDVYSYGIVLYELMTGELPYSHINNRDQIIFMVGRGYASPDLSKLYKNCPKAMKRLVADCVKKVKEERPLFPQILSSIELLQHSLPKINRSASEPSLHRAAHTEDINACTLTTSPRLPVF
# [27] = biological target: Casein kinase I isoform alpha (Homo sapiens) (UniProt P48729); assay: Inhibition of CK1alpha1 (unknown origin) at 1 uM by selectscreen kinase profiling assay in presence of ATP
# [28] = biological target: MAP kinase-activated protein kinase 2 (Homo sapiens) (UniProt P49137); assay: Inhibition of MAPKAPK2 (unknown origin) at 1 uM by selectscreen kinase profiling assay in presence of ATP
# MAP kinase-activated protein kinase 2 (Homo sapiens), sequence (P49137 whole entry, looked up): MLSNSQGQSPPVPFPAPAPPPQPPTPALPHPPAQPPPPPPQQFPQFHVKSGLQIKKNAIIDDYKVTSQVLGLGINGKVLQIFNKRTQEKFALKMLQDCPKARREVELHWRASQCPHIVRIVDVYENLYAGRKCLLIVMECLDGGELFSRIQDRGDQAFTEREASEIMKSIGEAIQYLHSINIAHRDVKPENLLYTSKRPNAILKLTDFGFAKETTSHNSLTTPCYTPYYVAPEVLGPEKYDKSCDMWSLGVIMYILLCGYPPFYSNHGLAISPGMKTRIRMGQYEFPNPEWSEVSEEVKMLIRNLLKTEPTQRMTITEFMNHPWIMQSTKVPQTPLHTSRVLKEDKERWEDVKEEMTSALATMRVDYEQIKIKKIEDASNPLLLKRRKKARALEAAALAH
# ANGM-CSS [29] = assay: Induction of human GSC differentiation derived from ANGM-CSS cells assessed as up regulation of olig mRNA expression at 1 uM after 7 days by RT-PCR analysis; type: functional, cell-based
# [30] = biological target: Tyrosine-protein kinase JAK1 (Homo sapiens) (UniProt P23458); assay: Inhibition of JAK1 (unknown origin) at 1 uM by selectscreen kinase profiling assay in presence of ATP
# [31] = biological target: Tyrosine-protein kinase BTK (Homo sapiens) (UniProt Q06187); assay: Inhibition of BTK (unknown origin) at 1 uM by selectscreen kinase profiling assay in presence of ATP
# ANGM-CSS [32] = assay: Antiproliferative activity against human GSC derived from ANGM-CSS cells by MTS assay; type: functional, cell-based; settings: TDE = time-dependent effect
# ANGM-CSS [33] = assay: Effect on human GSC morphology derived from ANGM-CSS cells assessed as reduction in area occupied by floating spheres at 1 uM after 7 days by microscopic analysis; type: functional, cell-based
# [34] = Induction of apoptosis in human GSC derived from ANGM-CSS cells assessed as late apoptotic cells at 1 uM after 7 days by annexin V-FITC/7-AAD dual staining based cell analysis (reference value: 2.51%); type: functional
structure (smiles),measurement,setting,value
COc1cc2c(cc1OC)CN(CC(=O)Nc1ccc3c(c1)/C(=C/c1cnc[nH]1)C(=O)N3)CC2,GI50,[1],7.73 µM
same,inhibition,ANGM-CSS [2],Dose-dependent effect
same,Activity,[3],1%
same,inhibition,[4],37%
same,inhibition,[5],-2%
same,Activity,[6],1.74%
same,Activity,[7],79.63%
same,inhibition,[8],26%
same,IC50,[9],0.884 µM
same,inhibition,[10],30%
same,inhibition,[11],5%
same,inhibition,[12],27%
same,GI50,[13],12.9 µM
same,inhibition,[14],18%
same,inhibition,[15],40%
same,inhibition,[16],37%
same,inhibition,[17],2%
same,inhibition,[18],8%
same,GI50,[19],16.7 µM
same,inhibition,[20],70%
same,inhibition,[21],6%
same,GI50,[22],14.6 µM
same,Activity,ANGM-CSS [23],Active
same,inhibition,[24],5%
same,GI50,[25],3.98 µM
same,inhibition,[26],25%
same,inhibition,[27],4%
same,inhibition,[28],-2%
same,Activity,ANGM-CSS [29],Active
same,inhibition,[30],-1%
same,inhibition,[31],12%
same,inhibition,ANGM-CSS [32],tde
same,Activity,ANGM-CSS [33],Active
same,Activity,[34],4.93%
